# Measurements as given in patent publication US4931463A, “Oxetanones” (Hoffmann-La Roche Inc., priority 1987, dated 1990).
# Where two headings read alike, the source gives them in different places.
# Key:
# pig pancreas lipase = target: T1, pig pancreas lipase (Sus scrofa, UniProt P00591); test: Inhibition of pancreas lipase, titrimetric registration of oleic acid liberated in the cleavage of triolein; format: biochemical
# T1 sequence (P00591 1-450): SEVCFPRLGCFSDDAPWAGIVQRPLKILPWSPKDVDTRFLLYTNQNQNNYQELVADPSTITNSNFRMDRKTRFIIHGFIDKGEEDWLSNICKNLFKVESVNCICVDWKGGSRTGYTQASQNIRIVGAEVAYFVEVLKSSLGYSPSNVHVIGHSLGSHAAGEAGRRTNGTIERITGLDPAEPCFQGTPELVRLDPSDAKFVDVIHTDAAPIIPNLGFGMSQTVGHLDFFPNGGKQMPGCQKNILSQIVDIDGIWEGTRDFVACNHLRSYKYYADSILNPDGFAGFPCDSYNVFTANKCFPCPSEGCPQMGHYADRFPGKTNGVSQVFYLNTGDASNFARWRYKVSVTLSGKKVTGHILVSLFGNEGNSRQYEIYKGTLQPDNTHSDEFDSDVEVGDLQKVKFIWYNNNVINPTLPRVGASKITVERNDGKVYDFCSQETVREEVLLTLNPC
# Description: To an emulsion which contains 1 mM of taurodeoxycholate, 9 mM of taurocholeate, 0.1 mM of cholesterol, 1 mM of egg lecithin, 15 mg/ml of BSA, 2 mM of Tris HCl, 100 mM of sodium chloride, 1 mM of calcium chloride and triolein as the substrate was added the compound of formula I dissolved in ethanol or dimethyl sulfoxide (10% of the emulsion volume) and the reaction was started by the addition of 100 μg (175 U) of pig pancreas lipase. The pH was held at 8 during the reaction by the addition of sodium hydroxide solution. The IC50 was calculated from the consumption of sodium hydroxide solution determined during 10 minutes. The IC50 was that concentration at which the lipase activity was inhibited to half of the maximum.
# mice = test: Acute toxicity after single oral administration to mice; format: in vivo
# [1] = pig pancreas lipase 100 μg (175 U), triolein substrate, pH 8, 10 minutes, concentration at which lipase activity was inhibited to half of the maximum, read-out: IC50 (converted)
Compound,IC50 (pig pancreas lipase; [1]),IC50 (pig pancreas lipase),Toxicity (dose of the compound at which the animal survives) (mice)
"CCCCC/C=C\C/C=C\CCCCCCC[C@@H](C[C@@H]1OC(=O)[C@H]1CC)OC(=O)[C@H](CC(C)C)NC=O [Example 2, 21]",38.5 nM,,
"CCCCCCCCCCCCCCCCC[C@@H](C[C@@H]1OC(=O)[C@H]1CC)OC(=O)[C@H](CC(C)C)NC=O [Example 4, 1, N-formyl-(S)-leucine (S)-1[[(2S,3S)-3-ethyl-4-oxo-2-oxetanyl]methyl]octadecyl ester]",210 nM,,
"CCCCCCCCCCC[C@H](O)C[C@@H]1OC(=O)[C@H]1CCCCCC (relative stereo) [Example 9 F.2., rac-trans-3-hexyl-4-(2-hydroxytridecyl)-2-oxetanone(2S,3S,4S:2R,3R,4R)]",240000 nM,,
"CC[C@@H]1C(=O)O[C@H]1C[C@@H](OC(=O)[C@H](CC(C)C)NC=O)c1ccc(Oc2ccccc2)cc1 [Example 2, 25a, N-formyl-(S)-leucine (R)-α-[[(2S,3S)-3-ethyl-4-oxo-2-oxetanyl]methyl]-p-phenoxybenzyl ester]",22 nM,,
"CCCCCC[C@@H]1C(=O)O[C@H]1C[C@H](CCCC)OC(=O)[C@H](Cc1ccccc1)NC=O [Example 6, 2, N-formyl-L-phenylalanine (S)-1-[[(2S,3S)-3-hexyl-4-oxo-2-oxetanyl]methyl]-4-pentyl ester]",,2320 nM,
"CCCCCCCC/C=C\CCCCCCC[C@@H](C[C@@H]1OC(=O)[C@H]1CC)OC(=O)[C@H](CC(C)C)NC=O (single isomer, unassigned) [Example 2, 23a]",,67.1 nM,2000 mg/kg p.o.
"CCCCCC[C@@H]1C(=O)O[C@H]1CC(CCCC)OC(=O)[C@H](CC(C)C)NC=O (mixture of isomers) [Example 5, N-formyl-L-leucine 1-[(trans-3-hexyl-4-oxo-2-oxetanyl]-methyl]pentyl ester]",503 nM,,
"CCCCCCCCCCCC(C[C@@H]1OC(=O)[C@H]1CCCCCC)OC(=O)[C@@H](N)CC(C)C (relative stereo) [Example 7, leucine 1-[(trans-3-hexyl-4-oxo-2-oxetanyl)methyl]dodecyl ester]",32100 nM,,
"CCCCCCCCCCCC(C[C@@H]1OC(=O)[C@H]1CC)OC(=O)[C@H](CC(C)C)NC=O (single isomer, unassigned) [Example 2, 13a, N-formyl-L-leucine 1-[(trans-3-ethyl-4-oxo-2-oxetanyl)methyl]dodecyl ester]",15.9 nM,,
"C=CCC[C@@H](C[C@@H]1OC(=O)[C@H]1CCCCCCCCCC)OC(=O)[C@H](CC(C)C)NC=O [Example 2, 34, N-formyl-L-leucine (S)-1-[[(2S,3S)-3-decyl-4-oxo-2-oxetanyl]methyl]-4-pentenyl ester]",,288 nM,4000 mg/kg p.o.
"C=CC[C@@H]1C(=O)O[C@H]1CC(CCCCCCCCCCC)OC(=O)[C@H](CC(C)C)NC=O (mixture of isomers) [Example 2, 14, N-formyl-L-leucine 1-[(trans-3-allyl-4-oxo-2-oxetanyl)methyl]dodecyl ester]",,33.2 nM,5000 mg/kg p.o.
